This note sets out measurements from ChEMBL document CHEMBL1127716, “-Ketothiazole inhibitors of prolyl endopeptidase” (Bioorg Med Chem Lett, 1994).

In this experiment the target is Prolyl endopeptidase (Sus scrofa, UniProt P23687). In words: Compound was evaluated for the inhibition of Prolyl endopeptidase (PEP) from pig kidney using Z-Gly-Pro-p-nitroanilide as substrate.
Prolyl endopeptidase, sequence (P23687 whole entry): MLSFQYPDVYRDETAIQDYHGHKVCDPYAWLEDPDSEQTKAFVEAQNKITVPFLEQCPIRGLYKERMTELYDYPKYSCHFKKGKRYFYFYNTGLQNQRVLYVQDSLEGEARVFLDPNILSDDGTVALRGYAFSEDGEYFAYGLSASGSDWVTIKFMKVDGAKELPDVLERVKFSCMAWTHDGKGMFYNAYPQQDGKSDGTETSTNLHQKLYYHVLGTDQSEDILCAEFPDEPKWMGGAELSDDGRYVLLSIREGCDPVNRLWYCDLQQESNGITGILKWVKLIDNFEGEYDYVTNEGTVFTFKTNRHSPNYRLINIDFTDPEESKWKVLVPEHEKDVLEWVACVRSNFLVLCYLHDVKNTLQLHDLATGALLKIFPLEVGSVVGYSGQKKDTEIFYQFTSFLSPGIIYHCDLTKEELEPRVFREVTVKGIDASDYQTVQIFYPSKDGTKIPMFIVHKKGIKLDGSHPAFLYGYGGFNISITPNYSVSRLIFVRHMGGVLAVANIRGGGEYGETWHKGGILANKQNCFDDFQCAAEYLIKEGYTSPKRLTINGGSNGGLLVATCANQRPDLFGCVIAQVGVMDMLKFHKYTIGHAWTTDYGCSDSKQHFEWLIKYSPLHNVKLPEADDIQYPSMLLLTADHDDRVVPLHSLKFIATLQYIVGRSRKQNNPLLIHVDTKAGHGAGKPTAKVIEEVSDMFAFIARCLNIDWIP

`O=C(c1cscn1)[C@@H]1CCCN1C(=O)[C@@H]1CCCN1C(=O)CCCc1ccccc1` had a half-maximal inhibitory concentration (IC50) of 5.9 nM. In other words, the single-digit nanomolar range.

In turn, `CCOC(=O)C(=O)[C@@H]1CCCN1C(=O)[C@@H]1CCCN1C(=O)CCCc1ccccc1` had an IC50 of 9.6 nM.
